In ChEMBL document CHEMBL3507680, “University of Dundee, Gates Library screen for HepG2 cell viability”:

Assay: Human HepG2 cell viability assay in 384 well format
Assay type: toxicity, cell-based
Design: dose 125 nL, time 70.5 hour; cytotoxicity at 70.5 h: concentration not given beside the values
Conditions: HepG2 cells, read-out: Inhibition

O=C(C[S+]([O-])Cc1csc(C2CCCC2)n1)NC1CCCC1 (stereo not drawn)
cytotoxicity at 70.5 h: -1.25%

CC(C)(C)c1nccc(N2CCC(OCCN3CCCCC3)C2)n1 (stereo not drawn)
cytotoxicity at 70.5 h: -6.69%

CC(=O)N1CCCc2cc(Nc3nccn(C)c3=O)ccc21
cytotoxicity at 70.5 h: -7.29%

Cn1ccnc(Nc2ccc3c(c2)CCN3C(=O)c2ccoc2)c1=O
cytotoxicity at 70.5 h: -10%

Cn1ccnc(Nc2ccc3c(c2)CCN3C(=O)c2cccnc2)c1=O
cytotoxicity at 70.5 h: -11.5%

CCOc1c(Br)cc(CNC(C)c2nnc3n2CCC3)cc1OC (stereo not drawn)
cytotoxicity at 70.5 h: -4.89%

CC(C)S(=O)(=O)NC(=O)CC(c1ccccc1)C(F)(F)F (stereo not drawn)
cytotoxicity at 70.5 h: -9.01%

CCc1nc(Cn2nc(COC)oc2=O)cs1
cytotoxicity at 70.5 h: -9.78%

FC(F)(F)Cn1nnnc1SCCN1CCCCC1
cytotoxicity at 70.5 h: -7.69%

COc1ccc2c(c1)CC(NCc1cccc(CO)c1)CC2 (stereo not drawn)
cytotoxicity at 70.5 h: -6.72%

Cc1ccnc(N2CCC(OCCN3CCCCC3)C2)n1 (stereo not drawn)
cytotoxicity at 70.5 h: -8.76%

c1cnc(N2CCC(OCCN3CCCCC3)C2)nc1 (stereo not drawn)
cytotoxicity at 70.5 h: -10.2%

Cc1cc(C)nc(N2CCC(OCCN3CCCCC3)C2)n1 (stereo not drawn)
cytotoxicity at 70.5 h: 8.57%

CN(c1cccnc1N1CCCC1)S(=O)(=O)c1cnn(C)c1
cytotoxicity at 70.5 h: 5.43%

CC(Cn1cccn1)NCC(=O)NC1CCOCC1 (stereo not drawn)
cytotoxicity at 70.5 h: 6.94%

Cc1nn(C)c(C)c1NC(=O)CNC(c1ccc(F)cc1)C1CCC1 (stereo not drawn)
cytotoxicity at 70.5 h: -7.04%

CCCN(CC(=O)OC)C(=O)c1sc(C)nc1C
cytotoxicity at 70.5 h: -15.4%

Cc1ccc2nc(CN(C)Cc3ccc(C)o3)cc(=O)n2c1
cytotoxicity at 70.5 h: -15%

Cc1ccc2nc(CN(Cc3ccc(C)o3)C(C)C)cc(=O)n2c1
cytotoxicity at 70.5 h: -11.5%

Cc1ccc2nc(CN(Cc3ccc(C#N)cc3)C(C)C)cc(=O)n2c1
cytotoxicity at 70.5 h: 20.2%

CN(CC(=O)Nc1cc(C(F)(F)F)c[nH]c1=O)Cc1ccccc1
cytotoxicity at 70.5 h: -11.2%

CN(C)C(CNS(=O)(=O)c1cnn(C)c1)c1cccc(F)c1 (stereo not drawn)
cytotoxicity at 70.5 h: -1.66%

CCCC(NC(=O)c1ccccn1)c1nnc2ccccn12 (stereo not drawn)
cytotoxicity at 70.5 h: -12.2%

Cc1ncc2c(n1)CN(Cc1ncc(C(C)(C)C)o1)CC2
cytotoxicity at 70.5 h: -13.9%

CN(Cc1ccccn1)C(=O)Nc1cc(C(F)(F)F)c[nH]c1=O
cytotoxicity at 70.5 h: -1.8%

Cc1cc(C)c(CNC(=O)N2CCCN(C(=O)C(C)C)CC2)c(C)c1
cytotoxicity at 70.5 h: 15.9%

CCCC(=O)NCC(=O)Nc1cc(F)ccc1SCC(F)F
cytotoxicity at 70.5 h: 2.19%

CC(C(=O)N(Cc1ccc(F)cc1)CC(F)(F)F)S(C)(=O)=O (stereo not drawn)
cytotoxicity at 70.5 h: -1.63%

COc1cc2c(nn1)CCN(Cc1ncc(C(C)(C)C)o1)C2
cytotoxicity at 70.5 h: -5.34%

CCc1ccsc1CNC(=O)CNC(=O)C(C)(C)C
cytotoxicity at 70.5 h: -7.92%

CCC(CO)NC(=O)Nc1cc(F)ccc1Br (stereo not drawn)
cytotoxicity at 70.5 h: -9.27%

O=C1CCCN1CCCN1CCCC1Cn1cccn1 (stereo not drawn)
cytotoxicity at 70.5 h: 8.99%

CCn1ccnc1CN1CCN(c2ccc3nnc(C)n3n2)CC1
cytotoxicity at 70.5 h: -8.35%

COc1ccccc1NC(=O)CC(C)NCCc1sc(C)nc1C (stereo not drawn)
cytotoxicity at 70.5 h: 8.63%

CCc1c(NCc2ccncc2)cnn1CC(C)C
cytotoxicity at 70.5 h: -5.95%

COC(=O)CCCN(C)C(c1cccnc1)c1ccc(F)cc1F (stereo not drawn)
cytotoxicity at 70.5 h: 5.6%

CCN(Cc1cnn(C)c1)S(=O)(=O)c1ccc(NC(C)=O)cc1
cytotoxicity at 70.5 h: 9.84%

O=C(CN1CCCc2cc(F)cc(F)c21)Nc1ccc(Br)cn1
cytotoxicity at 70.5 h: -3.51%

COc1cccc2c1N(CC(=O)Nc1ccc(Br)cn1)CCC2
cytotoxicity at 70.5 h: -3.62%

Cc1ccc(Cl)cc1NS(=O)(=O)c1cc(C(N)=O)n(C)c1
cytotoxicity at 70.5 h: -0.833%

O=C(NCCNc1ncccn1)c1ccc(Cl)s1
cytotoxicity at 70.5 h: -5.84%

CN(Cc1ccc(Cl)s1)C(=O)NCCN1CCCCCC1=O
cytotoxicity at 70.5 h: -3.32%

COC(=O)C(C)(C)NC(=O)c1cnc(C(C)(C)C)s1
cytotoxicity at 70.5 h: -1.58%

CC(C)(NC(=O)c1cnc(C(C)(C)C)s1)C(N)=O
cytotoxicity at 70.5 h: 28.5%

CC(C)c1ccc(O)c(C(=O)NCc2nncn2C)c1
cytotoxicity at 70.5 h: -6.12%

O=C(NCCN1CCCCCC1=O)NCc1ccc(Cl)s1
cytotoxicity at 70.5 h: 2.1%

CC(Oc1ccc(F)cc1)C(=O)N(CC(N)=O)C1CCCC1 (stereo not drawn)
cytotoxicity at 70.5 h: 0.347%

COc1ccc(CNC(=O)CCn2cc(C)cn2)cc1C
cytotoxicity at 70.5 h: 26.7%

CC(Oc1cccc(F)c1)C(=O)N(CC(N)=O)C1CCCC1 (stereo not drawn)
cytotoxicity at 70.5 h: 0.47%

CN(CC(=O)NCC(O)c1cccc(F)c1)C(=O)OC(C)(C)C (stereo not drawn)
cytotoxicity at 70.5 h: -3.05%

CC(C)c1ccc(O)c(C(=O)NCc2cc[nH]n2)c1
cytotoxicity at 70.5 h: 20.8%

Cc1ccc(CC(NC(=O)CCS(C)(=O)=O)c2ccccn2)cc1 (stereo not drawn)
cytotoxicity at 70.5 h: 0.0206%

CNC(=O)c1cc(NC(=O)NC(C)CCc2cccn2C)ccc1F (stereo not drawn)
cytotoxicity at 70.5 h: 22.7%

CNC(=O)c1cccc(NC(=O)NC(C)CCc2cccn2C)c1C (stereo not drawn)
cytotoxicity at 70.5 h: 5.28%

Cn1cc(S(=O)(=O)Nc2ccc(Cl)cn2)cc1C(N)=O
cytotoxicity at 70.5 h: -3.76%

Cc1ccnc(NS(=O)(=O)c2cc(C(N)=O)n(C)c2)c1
cytotoxicity at 70.5 h: 0.984%

O=C1NCCCCC1NC(=O)C1(c2ccc3c(c2)OCCO3)CCCC1 (stereo not drawn)
cytotoxicity at 70.5 h: 27.7%

COc1ccc(CCNC(=O)C2CC2)c(Cl)c1
cytotoxicity at 70.5 h: -1.42%

CC1(NC(=O)CC2CCc3ccccc32)CCOCC1 (stereo not drawn)
cytotoxicity at 70.5 h: -2.46%

COCCOc1ccc(S(=O)(=O)Nc2cccc(O)c2F)cc1C
cytotoxicity at 70.5 h: -7.45%

CCN(Cc1cnn(C)c1)S(=O)(=O)c1ccc(NC(=O)C(C)(C)C)cc1
cytotoxicity at 70.5 h: 2.92%

CC1CN(C)CCN1C(=O)c1cccn1Cc1cccnc1 (stereo not drawn)
cytotoxicity at 70.5 h: -7.82%

COc1ccc(C(=O)NC2CCN(c3ncccn3)CC2)cc1F
cytotoxicity at 70.5 h: -8.33%

O=C(Cn1cccnc1=O)NCc1cccnc1OCC(F)(F)F
cytotoxicity at 70.5 h: 2.5%

Cc1cccc(S(=O)(=O)NC2CCN(CC(F)(F)F)C2)c1 (stereo not drawn)
cytotoxicity at 70.5 h: -15.5%

Cc1cnn(C2CCCN(C(=O)c3cc(-c4cccs4)n[nH]3)C2)c1 (stereo not drawn)
cytotoxicity at 70.5 h: -4.05%

C=C(C)CN(CC)C(=O)Nc1ccccc1CN(C)C(C)=O
cytotoxicity at 70.5 h: -12.6%

COCCN(CC(F)F)c1cc(C(F)(F)F)nc2ncnn12
cytotoxicity at 70.5 h: -7.29%

CCOc1ccc(C(=O)NC2CCN(c3ncccn3)CC2)cc1C
cytotoxicity at 70.5 h: -0.65%

CCN(CC)CCN(CC(C)C)c1cc(C(F)(F)F)nc2ncnn12
cytotoxicity at 70.5 h: 0.687%

CC(NC(=O)c1ccc(C(N)=O)cc1)c1cccc(N2CCOC2=O)c1 (stereo not drawn)
cytotoxicity at 70.5 h: 0.0239%

c1ccc2oc(N3CCC(c4nncn4C4CC4)CC3)nc2c1
cytotoxicity at 70.5 h: 29.8%

CC(O)CN(C)S(=O)(=O)c1ccc(C#N)cc1F (stereo not drawn)
cytotoxicity at 70.5 h: -2.23%

COc1ccc(S(=O)(=O)Nc2cccnc2-n2cncn2)cc1C
cytotoxicity at 70.5 h: 0.714%

COc1cccc(NC(=O)CN(C(C)C)C2CC2)c1
cytotoxicity at 70.5 h: -2.69%

CC1CN(Cc2cccc(CN)c2)CCO1 (stereo not drawn)
cytotoxicity at 70.5 h: -9.2%

CC(C(=O)NCc1ccc(F)cc1)N(C)CCN1CCOCC1 (stereo not drawn)
cytotoxicity at 70.5 h: 24.4%

Cc1nc(C)c(C(=O)N2CCCc3c(F)ccc(F)c32)o1
cytotoxicity at 70.5 h: -9.33%

Cc1c(F)cccc1S(=O)(=O)N(C)CC(C)O (stereo not drawn)
cytotoxicity at 70.5 h: -11.6%

CN(CC(=O)N1CCCC1)C(=O)c1cccn1CCc1ccccc1
cytotoxicity at 70.5 h: -7.1%

COc1ccc(F)cc1CN1CCN(Cc2nccn2C)C(C)C1 (stereo not drawn)
cytotoxicity at 70.5 h: 9.37%

COc1cc(CNC2CCCN(c3ncccn3)C2)cc2c1OCO2 (stereo not drawn)
cytotoxicity at 70.5 h: -5.86%

COc1ccccc1-c1csc(-c2cccc(C(=O)O)c2)n1
cytotoxicity at 70.5 h: -4.2%

CN1CCOC(CNC(=O)CCc2cc(F)ccc2F)C1 (stereo not drawn)
cytotoxicity at 70.5 h: -4.57%

COc1ccc(-c2csc(-c3cccc(C(=O)O)c3)n2)cc1OC
cytotoxicity at 70.5 h: -9.98%

CCC(CC)(CNC(=O)OC(C)(C)C)NC(=O)C1CCCO1 (stereo not drawn)
cytotoxicity at 70.5 h: -3.25%

CCOc1ccc(NC2CCN(CC(F)(F)F)C2=O)cc1C (stereo not drawn)
cytotoxicity at 70.5 h: -5.71%

CSc1ccc(NCC(=O)NCC(=O)N2CCCC2)cc1F
cytotoxicity at 70.5 h: -2.3%

CSc1ccc(NCC(=O)NC(=O)NCC(F)(F)F)cc1F
cytotoxicity at 70.5 h: 19.5%

Cc1cnn(CCNCC(=O)Nc2ccc(Br)cn2)c1
cytotoxicity at 70.5 h: -4.64%

O=C(Cc1cccs1)N1CCOCC1c1ccccc1 (stereo not drawn)
cytotoxicity at 70.5 h: 15.2%

CN(Cc1ccsc1)C(=O)c1cc(S(=O)(=O)N(C)C)ccc1Cl
cytotoxicity at 70.5 h: -7.18%

CS(=O)(=O)N1CCCCCC1C1CCN(Cc2nc(C3CC3)no2)CC1 (stereo not drawn)
cytotoxicity at 70.5 h: 5.88%

CCOCC1CCCN(C(=O)NCc2cn3c(C)cccc3n2)C1 (stereo not drawn)
cytotoxicity at 70.5 h: 9.89%

Cc1cnc(CN(Cc2ccc(Cl)s2)C2CCN(C)C2)o1 (stereo not drawn)
cytotoxicity at 70.5 h: -9.93%

CC(=O)N(Cc1ncc(C)o1)C1CCN(Cc2cccnc2)C1 (stereo not drawn)
cytotoxicity at 70.5 h: 2.44%

Cc1ccc(CNCc2nnc3n2CC(C(F)(F)F)CC3)o1 (stereo not drawn)
cytotoxicity at 70.5 h: 2.88%

Cc1c(C(=O)N2CCCSCC2)nnn1-c1ccccc1Cl
cytotoxicity at 70.5 h: -8.81%

CCNC(=O)NC(=O)C(C)N(C)CCOc1ccccc1C (stereo not drawn)
cytotoxicity at 70.5 h: -12.4%

Cc1cc(C)c(CNC(=O)C(C)Oc2ccccc2C#N)c(=O)[nH]1 (stereo not drawn)
cytotoxicity at 70.5 h: -13.5%

Cc1cc(C)c(CNC(=O)C(C)Oc2cccc(C#N)c2)c(=O)[nH]1 (stereo not drawn)
cytotoxicity at 70.5 h: -11.6%

Cc1nc(CCNC(=O)NCC(c2ccco2)N(C)C)cs1 (stereo not drawn)
cytotoxicity at 70.5 h: -14.9%

Cc1cc(C)c(CNC(=O)C(C)Oc2ccccc2F)c(=O)[nH]1 (stereo not drawn)
cytotoxicity at 70.5 h: 2.57%

COc1ccc2oc(C(C)NC(=O)NCc3noc(C)n3)c(C)c2c1 (stereo not drawn)
cytotoxicity at 70.5 h: -12%

Cc1cc(C)n(-c2cncc(NCCNC(=O)C3CCCC3)n2)n1
cytotoxicity at 70.5 h: -9.3%

CC(C)n1cc(S(=O)(=O)N2CCCC(N3CCCCC3)C2)cn1 (stereo not drawn)
cytotoxicity at 70.5 h: -16.1%

CN(Cc1nccn1C)S(=O)(=O)N1CCCC1c1ccco1 (stereo not drawn)
cytotoxicity at 70.5 h: -11.4%

Cc1ccc(C2CCCN2S(=O)(=O)N(C)Cc2nccn2C)o1 (stereo not drawn)
cytotoxicity at 70.5 h: 5.77%

O=C(NCc1ccc2c(c1)OCO2)c1ccc(N2CCCCCC2)nc1
cytotoxicity at 70.5 h: 2.76%

O=C(Nc1nc(-c2ccccc2)ns1)N1CCC(CO)CC1
cytotoxicity at 70.5 h: -12.6%

Cc1cc(C)n(-c2cncc(NCCNC(=O)C(C)(C)C)n2)n1
cytotoxicity at 70.5 h: -9.22%

COc1ccc(CNCc2nnc3n2CC(C(F)(F)F)CC3)cc1 (stereo not drawn)
cytotoxicity at 70.5 h: 26.4%

CCc1nnc(SC2CCCN(c3cnn(C)c3)C2=O)n1C (stereo not drawn)
cytotoxicity at 70.5 h: -12.6%

CCc1nnc2n1CCN(CC(=O)N(CC)C1=CCCCC1)C2
cytotoxicity at 70.5 h: 14.1%

Cc1ncsc1CN(C)Cc1cc2c(cc1OC(F)F)OCO2
cytotoxicity at 70.5 h: 5.16%

Cc1nn(C)c(N(C)C)c1CNCc1ccc(Cn2cccn2)cc1
cytotoxicity at 70.5 h: -4.86%

CCn1c(C)nnc1CN(C)C1CCN(Cc2ccccn2)C1 (stereo not drawn)
cytotoxicity at 70.5 h: -2.44%

O=C(NCC1CC1)c1cc(Cl)c2c(c1)OCCCO2
cytotoxicity at 70.5 h: 8.95%
